Results from ChEMBL document CHEMBL3580564, “Semisynthetic Studies on and Biological Evaluation of N-Methyllaurotetanine Analogues as Ligands for 5-HT Receptors” (J Nat Prod, 2015).
pKi: −log10 of the molar value.

Assays:
Homo sapiens [1] = species on record: Homo sapiens; experiment: Selectivity index, ratio of Ki for human recombinant 5-HT1A receptor to Ki for human recombinant 5-HT7 receptor
[2] = biological target: 5-hydroxytryptamine receptor 7 (Homo sapiens, UniProt P34969); experiment: Displacement of [3H]LSD from human recombinant 5-HT7 receptor expressed in HEK cell membranes by radioligand binding assay; parameters: species or system HEK293
[3] = biological target: T1, 5-hydroxytryptamine receptor 1A (Homo sapiens, UniProt P08908); experiment: Displacement of [3H]Way100635 from human recombinant 5-HT1A receptor expressed in CHO cell membranes by radioligand binding assay
T1 sequence (P08908 whole entry): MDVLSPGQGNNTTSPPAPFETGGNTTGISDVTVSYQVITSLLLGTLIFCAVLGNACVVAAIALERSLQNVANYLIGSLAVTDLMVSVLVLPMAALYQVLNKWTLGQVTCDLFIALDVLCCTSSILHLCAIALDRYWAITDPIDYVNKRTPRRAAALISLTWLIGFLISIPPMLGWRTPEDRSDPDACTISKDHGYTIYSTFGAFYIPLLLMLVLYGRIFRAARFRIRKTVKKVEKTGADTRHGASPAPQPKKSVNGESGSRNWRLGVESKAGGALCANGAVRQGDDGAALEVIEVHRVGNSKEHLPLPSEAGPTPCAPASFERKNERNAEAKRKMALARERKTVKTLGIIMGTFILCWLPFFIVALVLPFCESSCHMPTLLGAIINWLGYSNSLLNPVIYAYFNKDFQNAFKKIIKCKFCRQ

[4] = biological target: 5-hydroxytryptamine receptor 2A (Homo sapiens, UniProt P28223); experiment: Displacement of [3H]ketanserin from human recombinant 5-HT2A receptor expressed in HEKT cell membranes by radioligand binding assay; format: cell-based
Homo sapiens [5] = species on record: Homo sapiens; experiment: Selectivity index, ratio of Ki for human recombinant 5-HT2A receptor to Ki for human recombinant 5-HT7 receptor
[6] = biological target: T2, 5-hydroxytryptamine receptor 1A (Homo sapiens) (UniProt P08908); experiment: Potency index, ratio of Ki for N-Methyllaurotetanine to Ki for test compound against human recombinant 5-HT1A receptor expressed in CHO cell membranes by radioligand binding assay
T2 sequence (whole entry): T1 sequence (P08908 whole entry)

Sequence of 5-hydroxytryptamine receptor 7 (P34969 whole entry): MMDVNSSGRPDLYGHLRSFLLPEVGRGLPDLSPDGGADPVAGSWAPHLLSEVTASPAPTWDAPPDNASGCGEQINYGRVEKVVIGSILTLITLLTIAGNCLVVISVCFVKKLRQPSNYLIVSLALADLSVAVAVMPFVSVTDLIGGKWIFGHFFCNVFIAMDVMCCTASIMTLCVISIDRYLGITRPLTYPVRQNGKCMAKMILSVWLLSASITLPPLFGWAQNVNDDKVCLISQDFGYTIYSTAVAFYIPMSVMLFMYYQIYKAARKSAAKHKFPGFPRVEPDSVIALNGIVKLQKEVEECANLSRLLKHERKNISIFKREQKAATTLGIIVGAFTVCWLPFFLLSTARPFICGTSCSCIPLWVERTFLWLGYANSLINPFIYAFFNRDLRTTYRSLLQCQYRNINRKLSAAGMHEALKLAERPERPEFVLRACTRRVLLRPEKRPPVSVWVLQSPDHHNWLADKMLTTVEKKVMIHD
Sequence of 5-hydroxytryptamine receptor 2A (P28223 whole entry): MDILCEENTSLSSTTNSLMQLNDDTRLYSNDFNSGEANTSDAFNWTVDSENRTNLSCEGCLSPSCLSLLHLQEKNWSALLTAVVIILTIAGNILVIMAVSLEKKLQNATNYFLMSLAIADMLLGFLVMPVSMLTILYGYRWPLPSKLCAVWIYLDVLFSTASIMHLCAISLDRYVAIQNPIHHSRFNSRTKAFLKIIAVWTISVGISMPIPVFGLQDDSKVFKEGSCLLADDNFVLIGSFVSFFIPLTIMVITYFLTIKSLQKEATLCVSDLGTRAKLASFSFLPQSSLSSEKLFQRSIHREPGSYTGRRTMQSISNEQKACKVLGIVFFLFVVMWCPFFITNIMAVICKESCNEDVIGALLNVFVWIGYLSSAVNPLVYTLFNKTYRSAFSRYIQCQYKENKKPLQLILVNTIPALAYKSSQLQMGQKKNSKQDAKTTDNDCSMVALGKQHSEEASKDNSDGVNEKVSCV

Compound | Ratio Ki (Homo sapiens [1]) | pKi [2] | pKi [3] | pKi [4] | Ratio Ki (Homo sapiens [5]) | Ratio Ki [6]
COc1cc2c(cc1OCC1CC1)C[C@H]1c3c(cc(OC)c(OC)c3-2)CCN1C | 10 | 7.66 | 6.65 | 6.24 | – | –
COc1cc2c(cc1OC(C)C)C[C@H]1c3c(cc(OC)c(OC)c3-2)CCN1C | 20 | 7.55 | 6.25 | 6.12 | 27 | –
CCCCCOc1cc2c(cc1OC)-c1c(OC)c(OC)cc3c1[C@H](C2)N(C)CC3 | 7 | 7.62 | 6.75 | 6.62 | 10 | –
CCCC(C)Oc1cc2c(cc1OC)-c1c(OC)c(OC)cc3c1[C@H](C2)N(C)CC3 (some centres not stated) | 5 | 7.62 | 6.93 | 6.61 | 5 | < 3
COc1cc2c(cc1OC1CCCCC1)C[C@H]1c3c(cc(OC)c(OC)c3-2)CCN1C | 3 | 7.30 | 6.79 | 6.24 | 11 | < 3
CCCCOc1cc2c(cc1OC)-c1c(OC)c(OC)cc3c1[C@H](C2)N(C)CC3 | 10 | 7.82 | 6.82 | 6.57 | 18 | –
COc1cc2c(cc1OCc1ccc(Br)cc1)C[C@H]1c3c(cc(OC)c(OC)c3-2)CCN1C | 2 | 7.27 | 6.99 | 6.38 | 8 | 3
CCOc1cc2c(cc1OC)-c1c(OC)c(OC)cc3c1[C@H](C2)N(C)CC3 | 7 | 7.16 | 6.30 | 6.09 | 12 | –
